Assay results as given in patent US20030195205A1, “PDE9 inhibitors for treating cardiovascular disorders” (Pfizer Inc., priority 2001, published 2003).
Like-named read-outs stand apart in the source and are kept apart here.

Target: T1, purified recombinant human PDE9 (Homo sapiens, UniProt O76083)
T1 construct: FLAG; made in house; host or cells: baculovirus/Sf9
Experiment: PDE9 enzyme inhibition scintillation proximity assay ([3H]cGMP hydrolysis)
Type: biochemical
Settings: for inhibition at 1 µM: 1 μM compound, read-out: inhibition against PDE9 at a concentration of 1 μM
Experimental: The ability of the compounds of the invention to inhibit the PDE9 enzyme was determined using the following in vitro assay. The assay used purified recombinant human PDE9.
The assay uses [3H]cGMP which is hydrolysed by the PDE9 enzyme to the 5′-nucleotide [3H]GMP. The [3H]GMP binds to yttrium silicate scintillation proximity assay (SPA) beads, and detected by scintillation counting. Inhibition of activity is determined relative to the activity of uninhibited controls.
Phosphodiesterase Scintillation Proximity Assay (SPA) beads (Yttrium Silicate) were obtained from Amersham Biotech.
[^3H]Guanosine 3′,5′-Cyclic Phosphate ([^3H]-cGMP), Ammonium Salt was obtained from Amersham Biotech.
Buffer A was prepared containing Tris.HCl (20 mM), MgCl2.6H2O (5 mM) in water.
Buffer B was prepared containing Bovine Serum Albumin (2 mg/ml) (BSA) in Buffer A. It was prepared fresh and filter sterilised.
PDE9 enzyme solution was prepared in Buffer B (dilution factor determined such that no more than 30% breakdown of substrate occurred, but typically 1:35,000).
SPA beads were prepared by creating a suspension of beads in water (20 mg/ml) (28 ml per pack) containing 3 mM cold cGMP to effectively quench the reaction.
The compounds of the invention were diluted by a factor of 50 (i.e. 2 μl in 100 μl) when constituted in the final assay mix. Compound stock was prepared at 4 mM in DMSO. Dilute 1/8 with DMSO to give 500 μM solutions.
A 4 mM stock of standard inhibitor was prepared in DMSO. The standard inhibitor chosen was 5-(3-bromobenzyl)-3-n-propyl-1,6-dihydro-7H-pyrazolo[4,3-d]pyrimidin-7-one. The solution was further diluted with DMSO to give a 500 μM solution.
Following serial dilution, 2 μl of compound dilutions were dispensed in duplicate into microtitre plates with 2 μl DMSO added to controls as shown below.
To the microtitre plates containing solutions of compounds of the invention (2 μl) was added Buffer A (25 μl) to all wells. Buffer B (25 μl) was added to blank wells. Enzyme solution (25 μl) was added all wells except blanks. Substrate solution (50 μl) was added to each well. The plates were sealed and incubated for 15 minutes on a plate-shaker at 30 °C. SPA bead solution (50 μl) was added (containing excess cGMP) to each well to stop the reaction (Note: yttrium silicate beads are dense and require constant agitation whilst being added to each plate). The plates were shaken for 15 minutes to allow the beads to bind the GMP product and then allowed to settle for 30 minutes.
The plates were then analysed using a scintillation counter (such as the NXT TopCount)TM.
For each compound the percentage inhibition was calculated by the following equation:
(mean maximum−compound value)/(mean maximum−mean minimum)×100
IC50 values were determined from sigmoid dose response curves of enzyme activity vs. compound concentration.

T1 sequence (O76083 whole entry): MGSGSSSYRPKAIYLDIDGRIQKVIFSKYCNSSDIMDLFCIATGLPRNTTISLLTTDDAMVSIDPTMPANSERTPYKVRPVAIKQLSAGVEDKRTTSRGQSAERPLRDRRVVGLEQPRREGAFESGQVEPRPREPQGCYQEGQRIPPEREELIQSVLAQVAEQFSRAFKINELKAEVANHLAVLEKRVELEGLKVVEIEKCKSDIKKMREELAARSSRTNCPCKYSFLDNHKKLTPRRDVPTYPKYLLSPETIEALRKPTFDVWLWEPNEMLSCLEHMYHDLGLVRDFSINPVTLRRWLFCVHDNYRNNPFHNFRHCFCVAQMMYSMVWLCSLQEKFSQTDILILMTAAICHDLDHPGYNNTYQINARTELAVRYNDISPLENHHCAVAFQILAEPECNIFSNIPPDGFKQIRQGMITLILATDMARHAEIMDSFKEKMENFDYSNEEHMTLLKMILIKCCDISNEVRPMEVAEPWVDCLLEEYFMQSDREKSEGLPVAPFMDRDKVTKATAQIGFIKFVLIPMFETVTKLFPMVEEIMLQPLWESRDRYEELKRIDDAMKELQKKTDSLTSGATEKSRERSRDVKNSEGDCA

Structure (SMILES)	inhibition at 1 µM [%]	IC50 (read-out: IC50 against PDE9) [nM]	IC50 (range the standard inhibitor was expected to fall in, read-out: IC50 of the standard) [nM]
O=c1[nH]c(Cc2ccccc2OCc2ccccc2)nc2c(C3CCCC3)n[nH]c12 [Compound 204, 3-cyclopentyl-5-(2-benzyloxybenzyl)-1,6-dihydro-pyrazolo[4,3-d]pyrimidin-7-one]	> 40	143	–
O=c1[nH]c(Cc2ccccc2OC(F)(F)F)nc2c(-c3ccccc3)n[nH]c12 [Compound 263, 5-(2-Trifluoromethoxybenzyl)-3-phenyl-1,6-dihydro-7H-pyrazolo[4,3-d]pyrimidin-7-one]	> 40	–	–
O=c1[nH]c(Cc2ccccc2OCc2ccccc2)nc2c(-c3cccnc3)n[nH]c12 [Compound 138, 3-(3-pyridinyl)-5-(2-benzyloxybenzyl)-1,6-dihydro-pyrazolo[4,3-d]pyrimidin-7-one]	> 40	–	–
O=c1[nH]c(Cc2ccccc2OC(F)(F)F)nc2c(C3CCCC3)n[nH]c12 [Compound 256, 3-Cyclopentyl-5-(2-trifluoromethoxybenzyl)-1,6-dihydro-pyrazolo[4,3-d]pyrimidin-7one]	> 40	–	–
CC(C)c1n[nH]c2c(=O)[nH]c(Cc3ccccc3OC(F)(F)F)nc12 [Compound 156, 3-isopropyl-5-(2-trifluoromethoxybenzyl)-1,6-dihydro-pyrazolo[4,3-d]pyrimidin-7-one]	> 40	–	–
CC(C)c1n[nH]c2c(=O)[nH]c(Cc3ccccc3Oc3ccccc3)nc12 [Compound 52, 3-isopropyl-5-(2-phenoxybenzyl)-1,6-dihydro-pyrazolo[4,3-d]pyrimidin-7-one]	> 40	126	–
CC(C)c1c2nc(Cc3cccc(Cl)c3)[nH]c(=O)c2nn1C [Compound 262, 5-(3-Chlorobenzyl)-3-isopropyl-2-methyl-2,6-dihydro-7H-pyrazolo[4,3-d]pyrimidin-7-one]	> 40	–	–
CCCc1n[nH]c2c(=O)[nH]c(Cc3cccc(Br)c3)nc12 [standard, 5-(3-bromobenzyl)-3-n-propyl-1,6-dihydro-7H-pyrazolo[4,3-d]pyrimidin-7-one, reference compound]	–	–	30 to 50
O=c1[nH]c(Cc2ccccc2OC(F)(F)F)nc2c(-c3cccnc3)n[nH]c12 [Compound 258]	–	141	–
